Reference: US8471005B2 (Cephalon, Inc., priority 2008, dated 2013)

What was measured:
ALK = target: T1, ALK (Homo sapiens, UniProt Q9UM73); experiment: ALK Kinase Assay (ELISA/TRF, PLC-γ substrate); assay type: biochemical; details: ALK kinase inhibition, 1 μM ATP; read-out: ALK Potency
T1 construct: host or cells: baculovirus expression system
How it was run: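 PLC-γ coat 10 μg/mL in TBS; ALK 30 ng/ml added to start; 37° C, 15 min; Eu-N1 PT66 antibody detection (TRF). IC50: % inhibition vs log10 [cpd], variable-slope sigmoidal fit.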

JAK2 = target: T2, JAK2 (Homo sapiens, UniProt O60674); experiment: Recombinant Human JAK2 Kinase Assay (TRF); assay type: biochemical; details: JAK2 kinase inhibition, 0.2 μM ATP; read-out: JAK2 Potency
T2 construct: host or cells: baculovirus expression system
T2 sequence (O60674 whole entry): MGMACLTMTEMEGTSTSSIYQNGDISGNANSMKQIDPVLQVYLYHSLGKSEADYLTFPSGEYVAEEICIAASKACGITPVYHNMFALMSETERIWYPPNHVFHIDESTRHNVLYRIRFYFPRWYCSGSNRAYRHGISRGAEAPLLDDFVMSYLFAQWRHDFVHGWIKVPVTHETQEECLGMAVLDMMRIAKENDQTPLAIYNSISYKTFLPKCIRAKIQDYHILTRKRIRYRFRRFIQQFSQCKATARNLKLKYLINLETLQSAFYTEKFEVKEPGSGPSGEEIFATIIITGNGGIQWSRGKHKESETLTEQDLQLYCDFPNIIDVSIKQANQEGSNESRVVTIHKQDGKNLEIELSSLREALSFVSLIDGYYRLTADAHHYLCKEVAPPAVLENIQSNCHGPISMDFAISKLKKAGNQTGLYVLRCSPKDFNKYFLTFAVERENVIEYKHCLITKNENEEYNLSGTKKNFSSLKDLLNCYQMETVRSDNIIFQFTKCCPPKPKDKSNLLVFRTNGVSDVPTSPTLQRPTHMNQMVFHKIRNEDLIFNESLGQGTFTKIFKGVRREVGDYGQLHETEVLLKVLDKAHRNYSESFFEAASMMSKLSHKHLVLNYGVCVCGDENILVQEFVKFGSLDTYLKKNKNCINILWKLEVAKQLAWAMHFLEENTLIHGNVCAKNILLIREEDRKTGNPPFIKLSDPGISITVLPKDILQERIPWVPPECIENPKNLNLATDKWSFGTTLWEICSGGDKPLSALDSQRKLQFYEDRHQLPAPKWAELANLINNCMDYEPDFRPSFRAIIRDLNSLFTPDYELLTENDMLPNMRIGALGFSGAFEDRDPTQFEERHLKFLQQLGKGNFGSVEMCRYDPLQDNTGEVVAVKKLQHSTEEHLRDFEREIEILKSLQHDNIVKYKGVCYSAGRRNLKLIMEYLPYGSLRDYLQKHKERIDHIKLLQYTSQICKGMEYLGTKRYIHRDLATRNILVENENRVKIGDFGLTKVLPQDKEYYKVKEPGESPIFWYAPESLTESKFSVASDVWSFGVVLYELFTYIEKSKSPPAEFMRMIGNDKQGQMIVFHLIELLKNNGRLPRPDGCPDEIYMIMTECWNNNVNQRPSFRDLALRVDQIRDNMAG
How it was run: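 Europium-labelled PY100 antibody reported tyrosine phosphorylation of a Neutravidin-captured biotinyl 15-mer peptide by JAK2 (baculovirus-expressed, 15 ng/ml). Conditions: 20 mM HEPES pH 7.2, 0.2 μM ATP, 1 mM MnCl2, 0.1% BSA, DMSO 2.5% final, 20 min at room temperature.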

T1 sequence (Q9UM73 19-1620): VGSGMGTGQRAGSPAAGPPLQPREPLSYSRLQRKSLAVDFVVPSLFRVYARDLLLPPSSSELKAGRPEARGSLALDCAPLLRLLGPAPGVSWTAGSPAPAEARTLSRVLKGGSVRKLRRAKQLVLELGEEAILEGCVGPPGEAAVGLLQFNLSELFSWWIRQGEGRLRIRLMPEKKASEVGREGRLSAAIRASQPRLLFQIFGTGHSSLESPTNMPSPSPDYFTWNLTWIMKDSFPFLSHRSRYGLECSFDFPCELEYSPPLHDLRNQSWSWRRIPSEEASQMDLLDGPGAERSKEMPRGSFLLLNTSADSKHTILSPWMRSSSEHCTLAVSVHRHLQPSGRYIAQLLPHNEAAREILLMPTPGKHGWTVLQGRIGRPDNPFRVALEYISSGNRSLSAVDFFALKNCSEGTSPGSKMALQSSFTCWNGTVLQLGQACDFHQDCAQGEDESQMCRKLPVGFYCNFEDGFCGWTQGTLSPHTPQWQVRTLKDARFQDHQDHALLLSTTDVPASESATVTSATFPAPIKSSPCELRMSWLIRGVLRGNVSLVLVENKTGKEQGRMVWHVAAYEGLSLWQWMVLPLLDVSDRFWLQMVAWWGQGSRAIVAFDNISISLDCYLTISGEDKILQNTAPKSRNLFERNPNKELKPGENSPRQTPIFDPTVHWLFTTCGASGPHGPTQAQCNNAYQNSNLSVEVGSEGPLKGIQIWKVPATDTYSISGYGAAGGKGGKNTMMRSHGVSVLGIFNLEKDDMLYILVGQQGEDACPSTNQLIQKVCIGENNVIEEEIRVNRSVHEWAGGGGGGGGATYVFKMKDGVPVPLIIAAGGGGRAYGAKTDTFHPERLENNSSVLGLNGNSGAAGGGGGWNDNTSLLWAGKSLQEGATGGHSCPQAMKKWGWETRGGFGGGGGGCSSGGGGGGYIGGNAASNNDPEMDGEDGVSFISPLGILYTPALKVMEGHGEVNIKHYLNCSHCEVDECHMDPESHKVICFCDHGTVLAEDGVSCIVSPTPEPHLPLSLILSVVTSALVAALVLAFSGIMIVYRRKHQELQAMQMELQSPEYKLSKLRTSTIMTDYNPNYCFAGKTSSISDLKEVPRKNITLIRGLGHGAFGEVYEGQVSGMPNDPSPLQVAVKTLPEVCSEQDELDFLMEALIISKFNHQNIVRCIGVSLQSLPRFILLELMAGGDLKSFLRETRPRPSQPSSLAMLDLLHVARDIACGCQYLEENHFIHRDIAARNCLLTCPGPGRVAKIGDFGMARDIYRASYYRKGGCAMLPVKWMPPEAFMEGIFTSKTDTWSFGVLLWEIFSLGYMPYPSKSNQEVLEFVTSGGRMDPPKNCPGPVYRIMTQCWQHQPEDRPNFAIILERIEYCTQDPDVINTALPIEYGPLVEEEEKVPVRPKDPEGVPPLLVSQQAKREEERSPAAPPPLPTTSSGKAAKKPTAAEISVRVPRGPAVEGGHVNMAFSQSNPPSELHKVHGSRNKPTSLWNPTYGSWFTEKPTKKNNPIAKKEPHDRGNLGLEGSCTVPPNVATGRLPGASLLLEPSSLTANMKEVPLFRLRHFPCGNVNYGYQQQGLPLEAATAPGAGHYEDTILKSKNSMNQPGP

Structure (SMILES)	IC50 (ALK) [nM]	IC50 (JAK2) [nM]
CN1CCC(c2ccc(Nc3ncc4ccc(-c5cccc(S(=O)(=O)NCc6ccccc6)c5)n4n3)cc2)CC1 [Example 904, N-Benzyl-3-{2-[4-(1-methyl-piperidin-4-yl)-phenylamino]-pyrrolo[2,1-f][1,2,4]triazin-7-yl}-benzenesulfonamide]	100 to 1000	< 100
CN1CCC(c2ccc(Nc3ncc4ccc(-c5cccc(S(=O)(=O)N6CCCCC6)c5)n4n3)cc2)CC1 [Example 905, [4-(1-Methyl-piperidin-4-yl)-phenyl]-{7-[3-(piperidine-1-sulfonyl)-phenyl]-pyrrolo[2,1-f][1,2,4]triazin-2-yl}-amine]	100 to 1000	< 100
CN1CCC(c2ccc(Nc3ncc4ccc(-c5cccc(S(=O)(=O)NC6CC6)c5)n4n3)cc2)CC1 [Example 906, N-Cyclopropyl-3-{2-[4-(1-methyl-piperidin-4-yl)-phenylamino]-pyrrolo[2,1-f][1,2,4]triazin-7-yl}-benzenesulfonamide]	< 100	< 100
CCNS(=O)(=O)c1cccc(-c2ccc3cnc(Nc4ccc(C5CCN(C)CC5)cc4)nn23)c1 [Example 907, N-Ethyl-3-{2-[4-(1-methyl-piperidin-4-yl)-phenylamino]-pyrrolo[2,1-f][1,2,4]triazin-7-yl}-benzenesulfonamide]	< 100	< 100
COc1ccccc1-c1ccc2cnc(Nc3ccc(C4CCN(C)CC4)c(OC)c3)nn12 [Example 908, [3-Methoxy-4-(1-methyl-piperidin-4-yl)-phenyl]-[7-(2-methoxy-phenyl)-pyrrolo[2,1-f][1,2,4]triazin-2-yl]-amine]	< 100	< 100
COc1ccc(-c2ccc3cnc(Nc4ccc(-c5csnn5)cc4)nn23)cn1 [Example 909, [7-(6-Methoxy-pyridin-3-yl)-pyrrolo[2,1-f][1,2,4]triazin-2-yl]-(4-[1,2,3]thiadiazol-4-yl-phenyl)-amine]	1000 to 10000	< 100
COc1ccc(-c2ccc3cnc(Nc4ccc(C5CCN(C)CC5)c(OC)c4)nn23)cn1 [Example 910, [3-Methoxy-4-(1-methyl-piperidin-4-yl)-phenyl]-[7-(6-methoxy-pyridin-3-yl)-pyrrolo[2,1-f][1,2,4]triazin-2-yl]-amine]	< 100	< 100
COc1ccc(-c2ccc3cnc(Nc4ccc(C5CCN(CC(N)=O)CC5)c(OC)c4)nn23)cn1 [Example 911, 2-(4-{2-Methoxy-4-[7-(6-methoxy-pyridin-3-yl)-pyrrolo[2,1-f][1,2,4]triazin-2-ylamino]-phenyl}-piperidin-1-yl)-acetamide]	< 100	< 100
COc1ccccc1-c1ccc2cnc(Nc3ccc(C4CCN(CC(N)=O)CC4)c(OC)c3)nn12 [Example 912, 2-(4-{2-Methoxy-4-[7-(2-methoxy-phenyl)-pyrrolo[2,1-f][1,2,4]triazin-2-ylamino]-phenyl}-piperidin-1-yl)-acetamide]	< 100	< 100
COc1cc(Nc2ncc3ccc(-c4ccccc4N(C)S(C)(=O)=O)n3n2)ccc1C1CCN(C)CC1 [Example 913, N-(2-{2-[3-Methoxy-4-(1-methyl-piperidin-4-yl)-phenylamino]-pyrrolo[2,1-f][1,2,4]triazin-7-yl}-phenyl)-N-methyl-methanesulfonamide]	< 100	< 100
COc1cc(Nc2ncc3ccc(-c4ccccc4N(C)S(C)(=O)=O)n3n2)ccc1C1CCN(CC(N)=O)CC1 [Example 914, 2-[4-(4-{7-[2-(Methanesulfonyl-methyl-amino)-phenyl]-pyrrolo[2,1-f][1,2,4]triazin-2-ylamino}-2-methoxy-phenyl)-piperidin-1-yl]-acetamide]	< 100	< 100
COc1ccccc1-c1ccc2cnc(Nc3ccc4c(c3)CCN(C)C4)nn12 [Example 915, [7-(2-Methoxy-phenyl)-pyrrolo[2,1-f][1,2,4]triazin-2-yl]-(2-methyl-1,2,3,4-tetrahydro-isoquinolin-6-yl)-amine]	< 100	< 100
COc1ccc(-c2ccc3cnc(Nc4ccc5c(c4)CCN(CC(N)=O)C5)nn23)cn1 [Example 916, 2-{6-[7-(6-Methoxy-pyridin-3-yl)-pyrrolo[2,1-f][1,2,4]triazin-2-ylamino]-3,4-dihydro-1H-isoquinolin-2-yl}-acetamide]	> 10000	< 100
COc1ccccc1-c1ccc2cnc(Nc3ccc4c(c3)CCN(CC(N)=O)C4)nn12 [Example 917, 2-{6-[7-(2-Methoxy-phenyl)-pyrrolo[2,1-f][1,2,4]triazin-2-ylamino]-3,4-dihydro-1H-isoquinolin-2-yl}-acetamide]	100 to 1000	< 100
CN(c1ccccc1-c1ccc2cnc(Nc3ccc4c(c3)CCN(CC(N)=O)C4)nn12)S(C)(=O)=O [Example 918, 2-(6-{7-[2-(Methanesulfonyl-methyl-amino)-phenyl]-pyrrolo[2,1-f][1,2,4]triazin-2-ylamino}-3,4-dihydro-1H-isoquinolin-2-yl)-acetamide]	100 to 1000	< 100
COc1ccc(-c2ccc3cnc(Nc4ccc5c(c4)CCN(C)C5)nn23)cn1 [Example 919, [7-(6-Methoxy-pyridin-3-yl)-pyrrolo[2,1-f][1,2,4]triazin-2-yl]-(2-methyl-1,2,3,4-tetrahydro-isoquinolin-6-yl)-amine]	100 to 1000	< 100
CC(C)(C)NS(=O)(=O)c1cccc(-c2ccc3cnc(Nc4ccc5c(c4)CCN(CC(N)=O)C5)nn23)c1 [Example 920, 2-{6-[7-(3-tert-Butylsulfamoyl-phenyl)-pyrrolo[2,1-f][1,2,4]triazin-2-ylamino]-3,4-dihydro-1H-isoquinolin-2-yl}-acetamide]	100 to 1000	< 100
CN1CCc2cc(Nc3ncc4ccc(-c5cccc(S(=O)(=O)NC(C)(C)C)c5)n4n3)ccc2C1 [Example 921, N-tert-Butyl-3-[2-(2-methyl-1,2,3,4-tetrahydro-isoquinolin-6-ylamino)-pyrrolo[2,1-f][1,2,4]triazin-7-yl]-benzenesulfonamide]	< 100	< 100
COc1ccccc1-c1ccc2cnc(Nc3cc4c(cc3F)CCC(=O)N4)nn12 [Example 922, 6-Fluoro-7-[7-(2-methoxy-phenyl)-pyrrolo[2,1-f][1,2,4]triazin-2-ylamino]-3,4-dihydro-1H-quinolin-2-one]	1000 to 10000	< 100
COc1cc(Nc2ncc3ccc(-c4cccc(S(C)(=O)=O)c4)n3n2)ccc1C1CCN(CC(N)=O)CC1 [Example 923, 2-(4-{4-[7-(3-Methanesulfonyl-phenyl)-pyrrolo[2,1-f][1,2,4]triazin-2-ylamino]-2-methoxy-phenyl}-piperidin-1-yl)-acetamide]	100 to 1000	< 100
COc1cc(Nc2ncc3ccc(-c4cccc(S(=O)(=O)NC(C)(C)C)c4)n3n2)ccc1C1CCN(CC(N)=O)CC1 [Example 924, 2-(4-{4-[7-(3-tert-Butylsulfamoyl-phenyl)-pyrrolo[2,1-f][1,2,4]triazin-2-ylamino]-2-methoxy-phenyl}-piperidin-1-yl)-acetamide]	< 100	< 100
COc1ccccc1-c1ccc2cnc(Nc3ccc4c(c3)CN(CC(N)=O)C4)nn12 [Example 925, 2-{5-[7-(2-Methoxy-phenyl)-pyrrolo[2,1-f][1,2,4]triazin-2-ylamino]-1,3-dihydro-isoindol-2-yl}-acetamide]	100 to 1000	< 100
